The text below walks through data of patent publication US12509444B2, “Compounds and methods for CD73 modulation and indications therefor” (Plexxikon Inc., priority 2019, dated 2025).

In the test the target is T1, Human CD73 (amino acid residues 27-549) (Homo sapiens, UniProt P21589).
T1 construct: Human CD73 (amino acid residues 27-549); His tag (N); made in house; host or cells: E. coli
T1 sequence (P21589 27-549): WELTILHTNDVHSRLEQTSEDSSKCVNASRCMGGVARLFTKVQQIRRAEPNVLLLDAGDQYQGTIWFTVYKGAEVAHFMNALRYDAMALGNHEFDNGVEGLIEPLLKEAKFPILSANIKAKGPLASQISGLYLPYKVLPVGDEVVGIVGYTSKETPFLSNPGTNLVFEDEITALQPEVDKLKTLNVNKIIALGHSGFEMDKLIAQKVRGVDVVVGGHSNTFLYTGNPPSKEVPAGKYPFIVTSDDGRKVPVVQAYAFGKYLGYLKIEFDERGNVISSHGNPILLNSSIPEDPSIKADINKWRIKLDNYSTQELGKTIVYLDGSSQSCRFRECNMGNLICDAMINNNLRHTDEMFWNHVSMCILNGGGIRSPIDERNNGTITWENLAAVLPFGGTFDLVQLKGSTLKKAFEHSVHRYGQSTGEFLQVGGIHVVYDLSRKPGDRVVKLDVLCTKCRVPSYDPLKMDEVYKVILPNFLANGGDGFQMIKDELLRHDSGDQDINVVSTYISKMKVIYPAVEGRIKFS
Description: CD73 enzymatic assay (luciferase-based indirect assay, CellTiter-Glo). The class given is biochemical. The settings on record: 0.4 nM CD73, 150 μM AMP, 1 hour at room temperature. How it is done:
CD73 enzymatic activity was measured in a luciferase-based indirect assay using CellTiter-Glo® system from Promega. The luciferase reaction in the presence of ATP is inhibited by AMP, a primary substrate of CD73. Addition of CD73 enzyme to the reaction converts AMP to adenosine, and release the inhibition, producing a luminescent signal. Inhibition of CD73 leads to the decrease of this luminescent signal.
Human CD73 (amino acid residues 27-549) with N-Terminal His tag was purified in E. coli. All the assay components were prepared in 50 mM HEPEs buffer (pH 7.4) with 0.01% Tween® 20. The CD73 enzymatic assay was performed using 0.4 nM CD73 and 150 μM AMP. 9.5 μL of CD73 protein and 9.5 μL of AMP were added to the wells of a 384 well plate containing 1 μL of various concentrations of test compound or DMSO vehicle and incubated for 1 hour at room temperature. 16 wells containing CD73, AMP and 5% DMSO served as high control. 16 wells containing AMP and 5% DMSO served as low control. Enzymatic reaction was stopped and AMP level was measured indirectly by adding 5 μL of CellTiter-Glo® 2.0 reagent and 5 μL of ATP with a final concentration of 1 μM. Following incubation of the plate at room temperature for 30 minutes, luminescent signal was read on a Tecan plate reader. The percentage inhibition at individual concentrations relative to high and low controls was calculated. The data were analyzed by using nonlinear regression to generate IC50 values.
In general terms: ATP-based viability assays read luminescence as a measure of living cells.

Regarding `CCCCOC(=O)N[C@@H]1CCN(c2cn[nH]c(=O)c2Cl)C1` [P-0001, butyl (R)-(1-(5-chloro-6-oxo-1,6-dihydropyridazin-4-yl)pyrrolidin-3-yl)carbamate], the half-maximal inhibitory concentration (IC50) (commonly the midpoint of a concentration-inhibition curve) is 0.001 to 10 µM.
The result for `CC(C)(C)OC(=O)N[C@H]1CCN(c2cn[nH]c(=O)c2Cl)C1` [P-0002, tert-butyl (S)-(1-(5-chloro-6-oxo-1,6-dihydropyridazin-4-yl)pyrrolidin-3-yl)carbamate] reads 10 to 100 µM.
For the compound `O=C(NC1CCCCCC1)N[C@@H]1CCN(c2cn[nH]c(=O)c2Cl)C1` [P-0003, (R)-1-(1-(5-chloro-6-oxo-1,6-dihydropyridazin-4-yl)pyrrolidin-3-yl)-3-cycloheptylurea], the IC50 was 0.001 to 10 µM.
In the case of `O=C(NCC1CCCC1)N[C@@H]1CCN(c2cn[nH]c(=O)c2Cl)C1` [P-0004, (R)-1-(1-(5-chloro-6-oxo-1,6-dihydropyridazin-4-yl)pyrrolidin-3-yl)-3-(cyclopentylmethyl)urea], the IC50 lay in the range of 0.001 to 10 µM.
With `O=C(NCC1CCOC1)N[C@@H]1CCN(c2cn[nH]c(=O)c2Cl)C1` (stereo partly drawn) [P-0005, 1-((R)-1-(5-chloro-6-oxo-1,6-dihydropyridazin-4-yl)pyrrolidin-3-yl)-3-((tetrahydrofuran-3-yl)methyl)urea], the half-maximal inhibitory concentration (IC50) is 0.001 to 10 µM.
In the case of `O=C(NCC1CCS(=O)(=O)C1)N[C@@H]1CCN(c2cn[nH]c(=O)c2Cl)C1` (stereo partly drawn) [P-0006, 1-((R)-1-(5-chloro-6-oxo-1,6-dihydropyridazin-4-yl)pyrrolidin-3-yl)-3-((1,1-dioxidotetrahydrothiophen-3-yl)methyl)urea] it was 10 to 100 µM; in that of `O=C(NCC1CCCCC1)N[C@@H]1CCN(c2cn[nH]c(=O)c2Cl)C1` [P-0007, (R)-1-(1-(5-chloro-6-oxo-1,6-dihydropyridazin-4-yl)pyrrolidin-3-yl)-3-(cyclohexylmethyl)urea], 0.001 to 10 µM.
In the case of `O=C(NCC1CCOCC1)N[C@@H]1CCN(c2cn[nH]c(=O)c2Cl)C1` [P-0008, (R)-1-(1-(5-chloro-6-oxo-1,6-dihydropyridazin-4-yl)pyrrolidin-3-yl)-3-((tetrahydro-2H-pyran-4-yl)methyl)urea], the IC50 was in the range of 0.001 to 10 µM.
In the case of `O=C(Nc1cccnc1)N[C@@H]1CCN(c2cn[nH]c(=O)c2Cl)C1` [P-0009, (R)-1-(1-(5-chloro-6-oxo-1,6-dihydropyridazin-4-yl)pyrrolidin-3-yl)-3-(pyridin-3-yl)urea] it was 10 to 100 µM.
`O=C(N[C@@H]1CCN(c2cn[nH]c(=O)c2Cl)C1)Oc1ccccc1` [P-0010, phenyl (R)-(1-(5-chloro-6-oxo-1,6-dihydropyridazin-4-yl)pyrrolidin-3-yl)carbamate] registered an IC50 of 0.001 to 10 µM.
In the case of `CC(C)(C)OC(=O)N[C@@H]1CCN(c2cn[nH]c(=O)c2Br)C1` [P-0011, tert-butyl (R)-(1-(5-bromo-6-oxo-1,6-dihydropyridazin-4-yl)pyrrolidin-3-yl)carbamate] it was 0.001 to 10 µM; in that of `Cc1occc1NC(=O)N[C@@H]1CCN(c2cn[nH]c(=O)c2Cl)C1` [P-0012, (R)-1-(1-(5-chloro-6-oxo-1,6-dihydropyridazin-4-yl)pyrrolidin-3-yl)-3-(2-methylfuran-3-yl)urea], 0.001 to 10 µM.
With `O=C(Nc1ccsc1)N[C@@H]1CCN(c2cn[nH]c(=O)c2Cl)C1` [P-0013, (R)-1-(1-(5-chloro-6-oxo-1,6-dihydropyridazin-4-yl)pyrrolidin-3-yl)-3-(thiophen-3-yl)urea], the half-inhibitory concentration (IC50) was in the range of 0.001 to 10 µM.
`Cn1cc(NC(=O)N[C@@H]2CCN(c3cn[nH]c(=O)c3Cl)C2)cn1` [P-0014, (R)-1-(1-(5-chloro-6-oxo-1,6-dihydropyridazin-4-yl)pyrrolidin-3-yl)-3-(1-methyl-1H-pyrazol-4-yl)urea] gave a 50% inhibitory concentration (IC50) of 10 to 100 µM.
For `COCCCNC(=O)N[C@@H]1CCN(c2cn[nH]c(=O)c2Cl)C1` [P-0016, (R)-1-(1-(5-chloro-6-oxo-1,6-dihydropyridazin-4-yl)pyrrolidin-3-yl)-3-(3-methoxypropyl)urea], the half-inhibitory concentration (IC50) is 10 to 100 µM.
`O=C(NC1CCCC1)N[C@H]1CCN(c2cn[nH]c(=O)c2Cl)C1` [P-0023, (S)-1-(1-(5-chloro-6-oxo-1,6-dihydropyridazin-4-yl)pyrrolidin-3-yl)-3-cyclopentylurea] yielded a half-maximal inhibitory concentration (IC50) of 10 to 100 µM.
For `O=C(NC1CCN(C(=O)C(F)(F)F)CC1)N[C@H]1CCN(c2cn[nH]c(=O)c2Cl)C1` [P-0024, (S)-1-(1-(5-chloro-6-oxo-1,6-dihydropyridazin-4-yl)pyrrolidin-3-yl)-3-(1-(2,2,2-trifluoroacetyl)piperidin-4-yl)urea], the half-maximal inhibitory concentration (IC50) lay in the range of 10 to 100 µM.
`O=C(N[C@H]1CCN(c2cn[nH]c(=O)c2Cl)C1)OC1CCCCC1` [P-0025, cyclohexyl (S)-(1-(5-chloro-6-oxo-1,6-dihydropyridazin-4-yl)pyrrolidin-3-yl)carbamate] registered a half-maximal inhibitory concentration (IC50) of 0.001 to 10 µM.
The compound `CCOC(=O)CCNC(=O)N[C@@H]1CCN(c2cn[nH]c(=O)c2Cl)C1` [P-0026, ethyl (R)-3-(3-(1-(5-chloro-6-oxo-1,6-dihydropyridazin-4-yl)pyrrolidin-3-yl)ureido)propanoate] displayed an IC50 of 10 to 100 µM.
In the case of `Cc1noc(C)c1NC(=O)N[C@@H]1CCN(c2cn[nH]c(=O)c2Cl)C1` [P-0027, (R)-1-(1-(5-chloro-6-oxo-1,6-dihydropyridazin-4-yl)pyrrolidin-3-yl)-3-(3,5-dimethylisoxazol-4-yl)urea] it was 0.001 to 10 µM.
For `O=C(Nc1cccc(C(F)(F)F)c1)N[C@@H]1CCN(c2cn[nH]c(=O)c2Cl)C1` [P-0028, (R)-1-(1-(5-chloro-6-oxo-1,6-dihydropyridazin-4-yl)pyrrolidin-3-yl)-3-(3-(trifluoromethyl)phenyl)urea], the IC50 is 10 to 100 µM.
`O=C(NC1CCOCC1)N[C@@H]1CCN(c2cn[nH]c(=O)c2Cl)C1` [P-0029, (R)-1-(1-(5-chloro-6-oxo-1,6-dihydropyridazin-4-yl)pyrrolidin-3-yl)-3-(tetrahydro-2H-pyran-4-yl)urea] showed an IC50 of 0.001 to 10 µM.
As for `O=C(NCc1ccccc1)N[C@@H]1CCN(c2cn[nH]c(=O)c2Cl)C1` [P-0031, (R)-1-benzyl-3-(1-(5-chloro-6-oxo-1,6-dihydropyridazin-4-yl)pyrrolidin-3-yl)urea], the half-inhibitory concentration (IC50) lay within 10 to 100 µM.
Consider `O=C(NCCc1ccccc1)N[C@@H]1CCN(c2cn[nH]c(=O)c2Cl)C1` [P-0032, (R)-1-(1-(5-chloro-6-oxo-1,6-dihydropyridazin-4-yl)pyrrolidin-3-yl)-3-phenethylurea], for which the IC50 lay within 10 to 100 µM.
Compound `COc1cccc(NC(=O)N[C@@H]2CCN(c3cn[nH]c(=O)c3Cl)C2)c1` [P-0033, (R)-1-(1-(5-chloro-6-oxo-1,6-dihydropyridazin-4-yl)pyrrolidin-3-yl)-3-(3-methoxyphenyl)urea] registered a concentration for half-maximal inhibition (IC50) of 10 to 100 µM.
Consider `CCOc1ccc(NC(=O)N[C@@H]2CCN(c3cn[nH]c(=O)c3Cl)C2)cc1` [P-0034, (R)-1-(1-(5-chloro-6-oxo-1,6-dihydropyridazin-4-yl)pyrrolidin-3-yl)-3-(4-ethoxyphenyl)urea], for which the half-inhibitory concentration (IC50) lay within 10 to 100 µM.
Regarding `CCOc1cccc(NC(=O)N[C@@H]2CCN(c3cn[nH]c(=O)c3Cl)C2)c1` [P-0035, (R)-1-(1-(5-chloro-6-oxo-1,6-dihydropyridazin-4-yl)pyrrolidin-3-yl)-3-(3-ethoxyphenyl)urea], the IC50 was 10 to 100 µM.
As for `CC(C)(C)OC(=O)N[C@@H]1CCN(c2cn[nH]c(=O)c2C#N)C1` [P-0036, tert-butyl (R)-(1-(5-cyano-6-oxo-1,6-dihydropyridazin-4-yl)pyrrolidin-3-yl)carbamate], the IC50 lay in the range of 0.001 to 10 µM.
In the case of `CC(C)(C)OC(=O)N[C@@H]1CCN(c2cn[nH]c(=O)c2)C1` [P-0037, tert-butyl (R)-(1-(6-oxo-1,6-dihydropyridazin-4-yl)pyrrolidin-3-yl)carbamate] it was 10 to 100 µM.
On to `O=C(Nc1ccccc1)N[C@@H]1CCN(c2cn[nH]c(=O)c2Cl)C1` [P-0038, (R)-1-(1-(5-chloro-6-oxo-1,6-dihydropyridazin-4-yl)pyrrolidin-3-yl)-3-phenylurea], for which the IC50 fell in the range of 0.001 to 10 µM.
In the case of `COc1ccc(CNC(=O)N[C@@H]2CCN(c3cn[nH]c(=O)c3Cl)C2)cc1OC` [P-0040, (R)-1-(1-(5-chloro-6-oxo-1,6-dihydropyridazin-4-yl)pyrrolidin-3-yl)-3-(3,4-dimethoxybenzyl)urea] it was 10 to 100 µM.
